Measured values published in US11072598B2, “Somatostatin modulators and uses thereof” (CRINETICS PHARMACEUTICALS, INC., priority 2017, dated 2021).

Target: T1, human somatostatin receptor subtype 2 (Homo sapiens, UniProt P30874)
T1 construct: expressed in transfected cells
Assay: cAMP functional assay for SSTR2 agonists
Type: cell-based
Settings: inhibition of cAMP activities via human SST2 receptor (SSTR2), CHO-K1 cells; read-out: EC50
Procedure, shortened: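 CHO-K1 cells stably expressing human SSTR2 were treated for 20 min at 37 °C with compound plus NKH477 (added as 1.6 μM) in HBSS with IBMX. Intracellular cAMP was measured by HTRF against a standard curve. EC50 values came from concentration-response curves.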

T1 sequence (P30874 whole entry): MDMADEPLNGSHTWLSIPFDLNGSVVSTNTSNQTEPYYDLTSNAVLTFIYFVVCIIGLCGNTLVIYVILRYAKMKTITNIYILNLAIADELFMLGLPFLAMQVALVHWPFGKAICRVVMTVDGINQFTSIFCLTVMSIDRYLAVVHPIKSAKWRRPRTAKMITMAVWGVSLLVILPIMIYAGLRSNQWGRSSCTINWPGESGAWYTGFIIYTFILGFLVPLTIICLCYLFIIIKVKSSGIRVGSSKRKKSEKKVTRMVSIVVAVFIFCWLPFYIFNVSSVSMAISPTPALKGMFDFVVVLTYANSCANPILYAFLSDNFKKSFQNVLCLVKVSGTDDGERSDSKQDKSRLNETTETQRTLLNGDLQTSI

| EC50 [nM] | Compound |
| --- | --- |
| < 10 | Cc1cc(F)cc(-c2cnnc(-c3cc4ccc(C#N)cc4[nH]3)c2N2CCC(N)CC2)c1 [Compound 3-12, 2-[4-(4-aminopiperidin-1-yl)-5-(3-fluoro-5-methylphenyl)pyridazin-3-yl]-1H-indole-6-carbonitrile] |
| < 10 | COc1ccc2[nH]c(-c3nncc(-c4cc(C)cc(F)c4)c3N3CCC(N)CC3)nc2c1 [Compound 3-10, 1-[5-(3-fluoro-5-methylphenyl)-3-(5-methoxy-1H-1,3-benzodiazol-2-yl)pyridazin-4-yl]piperidin-4-amine] |
| < 10 | CON=Cc1cc(F)c2[nH]c(-c3c(N)ncc(-c4cc(C)cc(F)c4)c3N3CCC(N)CC3)nc2c1 [Compound 1-61, 4-(4-aminopiperidin-1-yl)-5-(3-fluoro-5-methylphenyl)-3-{7-fluoro-5-[(methoxyimino)methyl]-1H-1,3-benzodiazol-2-yl}pyridin-2-amine] |
| < 10 | N#CCOc1cc(F)cc2nc(-c3c(N)ncc(-c4cc(F)cc(Cl)c4)c3N3CCC(N)CC3)[nH]c12 [Compound 1-87, 2-({2-[2-amino-4-(4-aminopiperidin-1-yl)-5-(3-chloro-5-fluorophenyl)pyridin-3-yl]-5-fluoro-1H-1,3-benzodiazol-7-yl}oxy)acetonitrile] |
| < 10 | COc1cc(F)cc2nc(-c3c(N4CC(F)C4)ncc(-c4cccc(F)c4)c3N3CCC(N)CC3)[nH]c12 [Compound 4-9, 1-[3-(5-fluoro-7-methoxy-1H-1,3-benzodiazol-2-yl)-2-(3-fluoroazetidin-1-yl)-5-(3-fluorophenyl)pyridin-4-yl]piperidin-4-amine] |
| 10 to 100 | Cc1cc(C)cc(-c2cnc(N)c(C=NOC(C)(C)C)c2N2CCC(N)CC2)c1 [Compound 1-36] |
| < 10 | COc1cc(Cl)cc2nc(-c3c(N)ncc(-c4cc(C)cc(F)c4)c3N3CCC(N)CC3)[nH]c12 [Compound 1-94, 4-(4-aminopiperidin-1-yl)-3-(5-chloro-7-methoxy-1H-1,3-benzodiazol-2-yl)-5-(3-fluoro-5-methylphenyl)pyridin-2-amine] |
| < 10 | COc1cccc2nc(-c3c(N(C)C)ncc(-c4cc(C)cc(F)c4)c3N3CCC(N)CC3)[nH]c12 [Compound 4-4, 4-(4-aminopiperidin-1-yl)-5-(3-fluoro-5-methylphenyl)-3-(7-methoxy-1H-1,3-benzodiazol-2-yl)-N,N-dimethylpyridin-2-amine] |
| < 10 | N#CCOc1cc(F)c2[nH]c(-c3c(N)ncc(-c4cc(F)cc(Cl)c4)c3N3CCC(N)CC3)nc2c1 [Compound 1-88, 2-({2-[2-amino-4-(4-aminopiperidin-1-yl)-5-(3-chloro-5-fluorophenyl)pyridin-3-yl]-7-fluoro-1H-1,3-benzodiazol-5-yl}oxy)acetonitrile] |
| < 10 | CON=Cc1cccc2[nH]c(-c3c(N)ncc(-c4cc(C)cc(F)c4)c3N3CCC(N)CC3)nc12 [Compound 1-44, 4-(4-aminopiperidin-1-yl)-5-(3-fluoro-5-methylphenyl)-3-{4-[(methoxyimino)methyl]-1H-1,3-benzodiazol-2-yl}pyridin-2-amine] |
| 10 to 100 | CONC(=O)c1cccc2nc(-c3c(N)ncc(-c4cc(C)cc(F)c4)c3N3CCC(N)CC3)[nH]c12 [Compound 1-17, 2-[2-amino-4-(4-aminopiperidin-1-yl)-5-(3-fluoro-5-methylphenyl)pyridin-3-yl]-N-methoxy-1H-1,3-benzodiazole-7-carboxamide] |
| < 10 | CNc1ncc(-c2cc(C)cc(F)c2)c(N2CCC(NC)CC2)c1-c1nc2cc(Cl)ccc2[nH]1 [Compound 4-1, 3-(5-chloro-1H-1,3-benzodiazol-2-yl)-5-(3-fluoro-5-methylphenyl)-N-methyl-4-[4-(methylamino)piperidin-1-yl]pyridin-2-amine] |
| < 10 | Cc1cc(F)cc(-c2cnnc(-c3cc4c(Cl)cccc4[nH]3)c2N2CCC(N)CC2)c1 [Compound 3-6, 1-[3-(4-chloro-1H-indol-2-yl)-5-(3-fluoro-5-methylphenyl)pyridazin-4-yl]piperidin-4-amine] |
| < 10 | COc1ncc(-c2cc(C)cc(F)c2)c(N2CCC(N)CC2)c1-c1nc2nc(Cl)ccc2[nH]1 [Compound 2-13, 1-(3-{5-chloro-1H-imidazo[4,5-b]pyridin-2-yl}-5-(3-fluoro-5-methylphenyl)-2-methoxypyridin-4-yl)piperidin-4-amine] |
| < 10 | Cc1cc(F)cc(-c2cnc(N)c(-c3nc4cccc(Cl)c4[nH]3)c2N2CCC(N)CC2)c1 [Compound 1-73, 4-(4-aminopiperidin-1-yl)-3-(7-chloro-1H-1,3-benzodiazol-2-yl)-5-(3-fluoro-5-methylphenyl)pyridin-2-amine] |
| < 10 | CON=Cc1ccc2[nH]c(-c3c(N)ncc(-c4cc(C)cc(F)c4)c3N3CCC(N)CC3)nc2c1 [Compound 1-40, 4-(4-aminopiperidin-1-yl)-5-(3-fluoro-5-methylphenyl)-3-{5-[(methoxyimino)methyl]-1H-1,3-benzodiazol-2-yl}pyridin-2-amine] |
| < 10 | Cc1cc(F)cc(-c2cnnc(-c3nc4cc(Cl)ccc4[nH]3)c2N2CCC(N)CC2)c1 [Compound 3-3, 1-[3-(5-chloro-1H-1,3-benzodiazol-2-yl)-5-(3-fluoro-5-methylphenyl)pyridazin-4-yl]piperidin-4-amine] |

| EC50 [nM] | Compound |
| --- | --- |
| < 10 | CO[C@@H]1CN(c2c(-c3cc(C)cc(F)c3)cnnc2-c2cc3ccc(Cl)cc3[nH]2)CC[C@H]1N (relative stereo) [Compound 3-11, trans-1-[3-(6-chloro-1H-indol-2-yl)-5-(3-fluoro-5-methylphenyl)pyridazin-4-yl]-3-methoxypiperidin-4-amine] |
| < 10 | Cc1cc(F)cc(-c2cnnc(-c3cc4cc(F)ccc4[nH]3)c2N2CCC(N)CC2)c1 [Compound 3-8, 1-[3-(5-fluoro-1H-indol-2-yl)-5-(3-fluoro-5-methylphenyl)pyridazin-4-yl]piperidin-4-amine] |
| < 10 | Cc1cc(Cl)cc(-c2cnc(N)c(-c3nc4cc(F)cc(F)c4[nH]3)c2N2CCC(N)CC2)c1 [Compound 1-79, 4-(4-aminopiperidin-1-yl)-5-(3-chloro-5-methylphenyl)-3-(5,7-difluoro-1H-1,3-benzodiazol-2-yl)pyridin-2-amine] |
| < 10 | CNC1CCN(c2c(-c3cc(C)cc(F)c3)cnc(N)c2-c2nc3ccc(C#N)cc3[nH]2)CC1 [Compound 4-2, 2-[2-amino-5-(3-fluoro-5-methylphenyl)-4-[4-(methylamino)piperidin-1-yl]pyridin-3-yl]-1H-1,3-benzodiazole-6-carbonitrile] |
| < 10 | Cc1cc(F)cc(-c2cnnc(-c3cc4ccc(C(N)=O)cc4[nH]3)c2N2CCC(N)CC2)c1 [Compound 3-19, 2-[4-(4-aminopiperidin-1-yl)-5-(3-fluoro-5-methylphenyl)pyridazin-3-yl]-1H-indole-6-carboxamide] |
| 10 to 100 | Cc1cc(F)cc(-c2cnc(O)c(-c3nc4cc(F)ccc4[nH]3)c2N2CCC(N)CC2)c1 [Compound 2-10, 4-(4-aminopiperidin-1-yl)-3-(5-fluoro-1H-1,3-benzodiazol-2-yl)-5-(3-fluoro-5-methylphenyl)pyridin-2-ol] |
| < 10 | 4-(4-aminopiperidin-1-yl)-5-(3-fluoro-5-methylphenyl)-3-{5-[(hydroxyimino)methyl]-1H-1,3-benzodiazol-2-yl}pyridin-2-amine [Compound 1-47] |
| < 10 | CON=Cc1cc(OC)c2[nH]c(-c3c(N)ncc(-c4cc(C)cc(F)c4)c3N3CCC(N)CC3)nc2c1 [Compound 1-76, 4-(4-aminopiperidin-1-yl)-5-(3-fluoro-5-methylphenyl)-3-{7-methoxy-5-[(methoxyimino)methyl]-1H-1,3-benzodiazol-2-yl}pyridin-2-amine] |
| < 10 | Cc1cc(F)cc(-c2cnc(N)c(-c3cc4ccc(C#N)cc4[nH]3)c2N2CCC(N)CC2)c1 [Compound 1-33, 2-[2-amino-4-(4-aminopiperidin-1-yl)-5-(3-fluoro-5-methylphenyl)pyridin-3-yl]-1H-indole-6-carbonitrile] |
| > 100 | Cc1cc(F)cc(-c2cnnc(-c3cc4ccc(-c5nn[nH]n5)cc4[nH]3)c2N2CCC(N)CC2)c1 [Compound 3-15, 1-[5-(3-fluoro-5-methylphenyl)-3-[6-(2H-1,2,3,4-tetrazol-5-yl)-1H-indol-2-yl]pyridazin-4-yl]piperidin-4-amine] |
| 10 to 100 | COc1ncc(-c2cc(F)cc(F)c2)c(N2CCC(N)CC2)c1-c1nc2cc(Cl)ccc2[nH]1 [Compound 2-14, 1-[3-(5-chloro-1H-1,3-benzodiazol-2-yl)-5-(3,5-difluorophenyl)-2-methoxypyridin-4-yl]piperidin-4-amine] |
| < 10 | COc1ncc(-c2cc(C)cc(F)c2)c(N2CCC(N)CC2)c1-c1nc2cc(Cl)ncc2[nH]1 [Compound 2-9] |
| < 10 | Cc1cc(Cl)cc(-c2cnc(N)c(C=NOC(C)C)c2N2CCC(N)CC2)c1 [Compound 1-37] |
| 10 to 100 | CONC(=O)c1ccc2cc(-c3nncc(-c4cc(C)cc(F)c4)c3N3CCC(N)CC3)[nH]c2c1 [Compound 3-20, 2-[4-(4-aminopiperidin-1-yl)-5-(3-fluoro-5-methylphenyl)pyridazin-3-yl]-N-methoxy-1H-indole-6-carboxamide] |
| < 10 | Cc1cc(F)cc(-c2cnc(N)c(-c3nc4cc(N5CC(F)C5)ccc4[nH]3)c2N2CCC(N)CC2)c1 [Compound 1-26, 4-(4-aminopiperidin-1-yl)-5-(3-fluoro-5-methylphenyl)-3-[5-(3-fluoroazetidin-1-yl)-1H-1,3-benzodiazol-2-yl]pyridin-2-amine] |
| < 10 | COC(=O)Nc1ccc2[nH]c(-c3c(N)ncc(-c4cc(C)cc(F)c4)c3N3CCC(N)CC3)nc2c1 [Compound 1-45, methyl N-{2-[2-amino-4-(4-aminopiperidin-1-yl)-5-(3-fluoro-5-methylphenyl)pyridin-3-yl]-1H-1,3-benzodiazol-5-yl}carbamate] |
